These results are taken from patent US6599896B1 (Les Laboratoires Servier, priority 1999, dated 2003).

In one experiment the test system is AMPA/kainate receptors. In words: Patch clamp: current induced by kainate in telencephalic cells in primary culture. The experiment is classed as cell-based, rat. Here is the method: Telencephalic cells of 16.5 day-old Wistar rat fetuses were cultured for 12 days. Patch clamp experiments were then conducted at ambient temperature in the following medium: 5 mM KCl, 140 mM NaCl, 10 mM Hepes, 2 mM MgCl2, 2 mM CaCl2 and 10 mM D-glucose (pH=7.3), and the micropipettes were filled with 140 mM KCl, 4 mM NaCl, 10 mM Hepes, 5 mM EGTA and 0.5 mM CaCl2 (pH=7.2).
That effect is measured by the patch clamp technique.

In the next experiment the test system is astrocytes in culture. Kind of experiment: ATP levels associated with hypoxia in astrocytes maintained in culture. Format: cell-based, rat. The following applies: hypoxia 24 hours. Here is the method:
Cultures of astrocytes are obtained using new-born rats according to the technique described by Booher J. and Sensenbrenner M. (Neurobiology 2, 97-105, […]). They are used three weeks after being placed in culture. […] The concentration of ATP is determined by luminescence and expressed in picomoles of ATP per mg of cellular proteins. The experiments are conducted in triplicate.

The next experiment relates to mitochondrial genome. Kind of experiment: In vivo expression of genes implicated in oxidative stress (RT-PCR, amygdala). The following applies: rat, 15 mg/kg i.p. for 21 days. Here is the method: After sacrifice of the animals and removal of the brains, the total RNA of the amygdala region is extracted and then subjected to an RT-PCR test. In brief, reverse transcription is performed on the extracted RNA, the transcription products are then amplified by chain polymerisation (PCR) and then subjected to high-resolution polyacrylamide gel electrophoresis. The bands of interest are removed from the gel, re-amplified, sequenced and analysed.

The subject of a further experiment is motoneurons. The following applies: Duong et al., Br. J. Pharmacol., 128, 1385-1392; cited from earlier work.
The subject of experiment [1] is cortical neurons in culture. Kind of experiment: In vitro neurotoxicity caused by hypoxia in cortical cells (LDH activity). The following applies: 20 μM; 3 hours hypoxia, LDH after 24 hours. Format: cell-based, rat. Here is the method:
(§1) Cortical cells are extracted from Sprague-Dawley rat foetuses and cultured in MEM (minimum essential medium) containing 5% horse serum and 5% calf foetus serum.
After morphological examination of the cells, the culture supernatants are collected and the lactate dehydrogenase (LDH) activity therein is measured.

Experiment [2] relates to cortical neurons in culture. In words: In vitro neurotoxicity caused by glutamate in cortical cells (LDH activity). Format: cell-based, rat. The following applies: 20 μM; 1 mM glutamate 15 minutes. Here is the method: as §1
Just before treatment with glutamate, the culture medium is replaced by 300 μl of saline solution buffered with HEPES. The cells are incubated for 15 minutes together with 1 mM glutamate. The culture media are then replaced by 200 μl of MEM without serum and the cells are incubated at 37° C. for 24 hours. After morphological examination of the cells, the culture supernatants are collected and the lactate dehydrogenase (LDH) activity therein is measured.

Experiment [3] deals with purified embryonic motoneurons. Kind of experiment: Death of motoneurons deprived of growth factors (survival count). Format: cell-based, rat. Particulars: BDNF 1 ng/ml; 2.5 days of culture.
Method: Pregnant Sprague-Dawley rats are sacrificed on the 14th day of embryo life. The motoneurons of the embryos are purified according to the method published by C.
The motoneurons are seeded a density of approximately 1000 cells per 16-mm well and are cultured in Neurobasal, supplemented by B27 and horse serum. […] The surviving motoneurons are counted directly.
After 2.5 days of culture, motoneurons are counted in 2 areas of each of the 4 wells. Absolute value per area are presented (mean+/−s.e.m., n=8).

For `CN1c2ccccc2C(NCCCCCCC(=O)O)c2ccc(Cl)cc2S1(=O)=O` (stereo not drawn) [tianeptine], in the experiment with AMPA/kainate receptors (10 μM, without kainate), the “effect on the current entering the cells, compound on its own (direct agonism)” value is “no effect”. In addition, the “effect on the current induced by kainate” value with AMPA/kainate receptors (4, 10 and 25 μM, kainate 250 μM, FIG. 1) is listed as “increases the current induced by kainate”. Also, the “percentage protection of astrocytes (ATP level)” value in the experiment with astrocytes in culture (10 μM (maximal)) is 68%. The “protection of astrocytes (ATP level)” value in the experiment on astrocytes in culture (0.1-1-10 μM, FIG. 4) is “protects astrocytes in culture in a dose-dependent manner”. Also, the “expression of mitochondrial genes in the amygdala” value in the experiment with mitochondrial genome was “overexpression of the mitochondrial genes of NADH ubiquinone reductase (sub-units 2 and 5) and also of genes coding for 16S rRNA, leu-tRNA and val-tRNA”.
On to `Cl.FC(F)(F)c1cccc(C2=CCN(CCc3ccc4ccccc4c3)CC2)c1` [SR57746A], for which the “activity on the survival of motoneurons in vitro” value with motoneurons is “active”.
Consider `C[C@]12N[C@H](Cc3ccccc31)c1ccccc12` [MK-801], for which the “protection against the effects of hypoxia (LDH activity)” value in experiment [1] came to 86.3%. For the same molecule, the “protection against toxicity caused by glutamate (LDH activity)” value in experiment [2] was “total protection”.

B1: Brain-Derived Neurotrophic Factor (protein, UniProt P23560 19-247, looked up)
Neurotrophic factor BDNF …: APMKEANIRGQGGLAYPGVRTHGTLESVNGPKAGSRGLTSLADTFEHVIEELLDEDQKVRPNEENNKDADLYTSRVMLSSQVPLEPPLLFLLEEYKNYLDAANMSMRVRRHSDPARRGELSVCDSISEWVTAADKKTAVDMSGGTVTVLEKVPVSKGQLKQYFYETKCNPMGYTKEGCRGIDKRHWNSQCRTTQSYVRALTMDSKKRIGWRFIRIDTSCVCTLTIKRGR
notes: growth factor, 1 ng/ml, positive control for motoneuron survival
Turning to B1, the survival of motoneurons entry in experiment [3] is given as “protect the motoneurons from cell death”.
